Source: article PMC9415608, “Design, Synthesis and Biological Investigation of 2-Anilino Triazolopyrimidines as Tubulin Polymerization Inhibitors with Anticancer Activities” (Pharmaceuticals, 2022)
Like-named read-outs stand apart in the source and are kept apart here.

Tests used:
cancer cell lines = details: antiproliferative agent; read-out: IC50, range; cited from earlier work
A549 = assay: In vitro cell growth inhibition, resazurin viability assay; format: cell-based, human; details: Homo sapiens, A549; 72 h, resazurin; mean ± SE
Description: (§1) All the cell lines used in this paper were of human origin and purchased from the American Type Culture Collection (ATCC, Manassas, VA, USA). Colon adenocarcinoma (HT-29), non-small cell lung carcinoma (A549), cervix carcinoma (HeLa) and breast adenocarcinoma (MDA-MB-231) cells were grown in RPMI (HT29) or DMEM (A549, HeLa, MDA-MB-231) medium (Gibco, Milano, Italy). Both media were supplemented with 115 units/mL of penicillin G (Gibco, Milano, Italy), 115 μg/mL of streptomycin (Invitrogen, Milano, Italy) and 10% fetal bovine serum (Invitrogen, Milano, Italy). All cell lines were grown at 37 °C in a humidified 5% CO2 atmosphere. The cells were grown in 2 mL of complete medium.
(§2) Stock solutions were prepared for each compound by dissolving in DMSO at the final concentration of 10 mM.
(§3) The cells were seeded in 96-well plates at the appropriate density for each cell line. The respective cell line densities used for the antiproliferative assay were HeLa and HT29 5000 cells/well, A549 4000 cells/well and MDA-MB-231 7000 cells/well. The total volume of medium was 100 µL. After 24 h, the cells were treated by performing serial 5-fold dilutions of the tested compounds starting from a concentration of 10 μM. All experimental conditions were tested in triplicate for statistical analysis. After 72 h of incubation, 10 μL of 100 μg/mL resazurin solution was added to each well and the plate was re-incubated for 3–4 h. The fluorescence of the wells in each plate was monitored using a Spark 10M spectrophotometer (Tecan Group Ltd., Mannedorf, Switzerland) with a 535 nm excitation wavelength and a 600 nm emission wavelength.

HT29 = assay: as above; format: cell-based, human; details: Homo sapiens, HT-29; 72 h, resazurin; mean ± SE
Description: as §1, §2, §3

HeLa = assay: as above; format: cell-based, human; details: Homo sapiens; 72 h, resazurin; mean ± SE
Description: as §1, §2, §3

MDA-MB-231 = assay: as above; format: cell-based, human; details: Homo sapiens, MDA-MB-231; 72 h, resazurin; mean ± SE
Description: as §1, §2, §3

Bovine brain tubulin [1] = assay: Inhibition of tubulin polymerization (turbidimetric assembly assay); format: biochemical; details: tubulin at 10 μM, 20 min incubation; read-out: Tubulin Assembly IC50 ± SD
Description: (§4) Bovine brain tubulin was purified as described previously. To evaluate the effects of the compounds on tubulin assembly in vitro [80], varying concentrations were preincubated with 10 μM tubulin in 0.8 M monosodium glutamate (pH 6.6) at 30 °C and the reaction mixtures then cooled to 0 °C. After addition of GTP, the mixtures were transferred to 0 °C cuvettes in Beckman Coulter (Brea, CA, USA) DU-7400/DU-7500 recording spectrophotometers equipped with electronic temperature controllers and warmed to 30 °C, and the assembly of tubulin was observed turbidimetrically. […] Inhibition of colchicine binding to tubulin was measured as described before, except that the reaction mixtures contained 0.5 μM tubulin and 5 μM each of [^3H]colchicine and test compound. Only one DEAE-cellulose filter was used per sample, and filtration was by gravity.
(§5) Bovine brain tubulin (see ref. [79] for details of purification) was used to examine effects on tubulin polymerization and colchicine binding. Briefly, in the polymerization experiments, different compound concentrations were preincubated with 10 µM tubulin for 15 min at 30 °C and cooled on ice. After GTP was added to each reaction mixture, the samples were transferred to 0 °C cuvettes in recording spectrophotometers with electronic temperature controllers. The temperature was raised to 30 °C over about 30 s, and turbidity development was followed for 20 min at 350 nm. […] In the current studies, [^3H]colchicine (from American Radiolabeled Corp., St. Louis, MO) binding was measured after 10 min at 37 °C. Reaction mixtures contained 0.5 µM tubulin and 5.0 µM each of the [^3H]colchicine and the potential inhibitor, and a single DEAE-cellulose filter was used for each sample, with gravity filtration.

Bovine brain tubulin [2] = assay: Inhibition of [3H]colchicine binding to tubulin; details: tubulin 0.5 µM, [3H]colchicine 5 µM, tested compound 5 µM
Description: as §4, §5

HeLa cells = details: read-out: IC50 antiproliferative activity against HeLa cells; cited from earlier work
[3] = test system: panel of four cancer cell lines; details: read-out: IC50 values, range; cited from earlier work
tubulin [4] = details: cited from earlier work
tubulin [5] = test system: tubulin; parameters: method as in PMID 25025853; details: read-out: IC50 inhibition of tubulin polymerization; cited from earlier work
HCT-116 cancer cell line = test system: HCT-116 cancer cell line; parameters: method as in PMID 35196595; details: read-out: IC50 antiproliferative activity against HCT-116; cited from earlier work
tubulin [6] = test system: tubulin; parameters: method as in PMID 35196595; details: read-out: IC50 tubulin polymerization inhibitor; cited from earlier work
[7] = test system: MDA-MB-231, HeLa, A549 and HT-29 cancer cell lines; assay: Antiproliferative activity stated across the panel of cancer cell lines; format: cell-based, human; details: for IC50: Homo sapiens; for fold reduction in antiproliferative activity relative to 3d: range over cell lines
Description: as §1, §2, §3

[8] = on HeLa, A549 and HT-29 cancer cells, read-out: IC50 values, range

IC50 (A549) [µM]	IC50 (HT29) [µM]	IC50 (HeLa) [µM]	IC50 (MDA-MB-231) [µM]	IC50 (Bovine brain tubulin [1]) [nM]	Colchicine Binding % Inhibition ± SD (Bovine brain tubulin [2]) [%]	melting point [°C]	SMILES	also measured
							COc1cc(Nc2cc(C)nc3nc(Nc4ccc(C)cc4)nn23)cc(OC)c1OC [5-methyl-2-(p-toluidino)-7-(3′,4′,5′-trimethoxyanilino)-[1,2,4]triazolo[1,5-a]pyrimidine]	IC50 (cancer cell lines): 520 to 1550 nM
0.76 ± 0.18	0.76 ± 0.18	0.44 ± 0.08	1.76 ± 0.9	2200 ± 200	39 ± 5	165 to 166	COc1cccc(Nc2nc3nccc(-c4cc(OC)c(OC)c(OC)c4)n3n2)c1 [Compound 3l, N-(3-Methoxyphenyl)-7-(3,4,5-trimethoxyphenyl)-[1,2,4]triazolo[1,5-a]pyrimidin-2-amine]	
							COc1ccc(-c2nc3nccc(-c4cc(OC)c(OC)c(OC)c4)n3n2)cc1O [Compound 4]	IC50 (HeLa cells): 60 nM; IC50 [3]: 3000 to 18000 nM; fold greater potency than CA-4, inhibition of tubulin assembly (tubulin [4]): 3 fold
							COc1cc(C(=O)n2nc(Nc3ccc(C)cc3)nc2N)cc(OC)c1OC [Compound 2a]	IC50 (tubulin [5]): 750 nM
							COc1cc(-c2cc(-c3ccc(Cl)cc3)nc3nc(N)nn23)cc(OC)c1OC [Compound 5]	IC50 (HCT-116 cancer cell line): 530 nM; IC50 (tubulin [6]): 3840 nM
0.2 ± 0.044	0.16 ± 0.033	0.24 ± 0.074	> 10	1900 ± 200	21 ± 0.9	199 to 200	CCc1ccc(Nc2nc3nccc(-c4cc(OC)c(OC)c(OC)c4)n3n2)cc1 [Compound 3h, N-(4-Ethylphenyl)-7-(3,4,5-trimethoxyphenyl)-[1,2,4]triazolo[1,5-a]pyrimidin-2-amine]	IC50 [7, 8]: 160 to 240 nM; fold reduction in antiproliferative activity relative to 3d [7]: 5–7 fold
0.16 ± 0.045	0.16 ± 0.041	0.067 ± 0.0023	> 10	800 ± 100	18 ± 5	189 to 190	COc1cc(-c2ccnc3nc(Nc4ccc(C)c(C)c4)nn23)cc(OC)c1OC [Compound 3f, N-(3,4-Dimethylphenyl)-7-(3,4,5-trimethoxyphenyl)-[1,2,4]triazolo[1,5-a]pyrimidin-2-amine]	IC50 [7, 8]: 67 to 160 nM; fold reduction in antiproliferative activity relative to 3d [7]: 2–5 fold

SMILES	IC50 (A549) [µM]	IC50 (HT29) [µM]	IC50 (HeLa) [µM]	IC50 (MDA-MB-231) [µM]	IC50 (Bovine brain tubulin [1]) [nM]	Colchicine Binding % Inhibition ± SD (Bovine brain tubulin [2]) [%]	melting point [°C]	also measured
COc1ccc(/C=C\c2cc(OC)c(OC)c(OC)c2)cc1O [CA-4, combretastatin A-4, reference compound]			0.004 ± 0.001	0.005 ± 0.002	[…]	98 ± 2		IC50 ([7]; against MDA-MB-231 and HeLa cancer cell lines, read-out: IC50, range): 4 to 5 nM
